Results from patent US7582773B2, “Substituted phenyl indoles” (Wyeth, priority 2003, dated 2009).

Experiments:
human PAI-1 = human PAI-1 (Homo sapiens, UniProt P05121); assay: Assay for determining the IC50 of inhibition of PAI-1 (active PAI-1 bound to tPA-coated plate); type: biochemical; conditions: test compound 1-50 μM, pH 7.5
Procedure: Assay for determining the IC50 of inhibition of PAI-1. This assay is based upon the non-SDS dissociable interaction between tPA and active PAI-1. Assay plates are initially coated with human tPA (10 μg/ml). Test compounds are dissolved in DMSO at 10 mM, then diluted with physiologic buffer (pH 7.5) to a final concentration of 1-50 μM. The test compounds are incubated with human PAI-1 (50 ng/ml) for 15 minutes at room temperature. The tPA-coated plate is washed with a solution of 0.05% Tween 20 and 0.1% BSA, then the plate is blocked with a solution of 3% BSA. An aliquot of the test compound/PAI-1 solution is then added to the tPA-coated plate, incubated at room temperature for 1 hour, and washed. Active PAI-1 bound to the plate is assessed by adding an aliquot of a 1:1000 dilution of the 33B8 monoclonal antibody against human PAI-1, and incubating the plate at room temperature for 1 hour (Molecular Innovations, Royal Oak, Mich.). The plate is again washed, and a solution of goat anti-mouse IgG-alkaline phosphatase conjugate is added at a 1:50,000 dilution in goat serum. The plate is incubated 30 minutes at room temperature, washed, and a solution of alkaline phosphatase substrate is added. The plate is incubated 45 minutes at room temperature, and color development is determined at OD405 nm. The quantitation of active PAI-1 bound to tPA at varying concentrations of the test compound is used to determine the IC50. Results are analyzed using a logarithmic best-fit equation. The assay sensitivity is 5 ng/ml of human PAI-1 as determined from a standard curve ranging from 0-100 ng/ml.

[1] = biological target: T1, recombinant human plasminogen activator inhibitor-1 (PAI-1) (Homo sapiens, UniProt P05121); assay: Screening for PAI-1 inhibition (chromogenic tPA activity assay); type: biochemical
T1 construct: purchased Molecular Innovations, Royal Oak, Mich
Procedure: Screening for PAI-1 inhibition. Test compounds are dissolved in DMSO at a final concentration of 10 mM, then diluted 100× in physiologic buffer. The inhibitory assay is initiated by the addition of the test compound (1-100 μM final concentration, maximum DMSO concentration of 0.2%) in a pH 6.6 buffer containing 140 nM recombinant human plasminogen activator inhibitor-1 (PAI-1; Molecular Innovations, Royal Oak, Mich.). Following a 1 hour incubation at room temperature, 70 nM of recombinant human tissue plasminogen activator (tPA) is added, and the combination of the test compound, PAI-1 and tPA is incubated for an additional 30 minutes. Following the second incubation, Spectrozyme-tPA (American Diagnostica, Greenwich, Conn.), a chromogenic substrate for tPA, is added and absorbance read at 405 nm at 0 and 60 minutes. Relative PAI-1 inhibition is equal to the residual tPA activity in the presence of the test compounds and PAI-1. Control treatments include the complete inhibition of tPA by PAI-1 at the molar ratio employed (2:1), and the absence of any effect of the test compound on tPA alone.

T1 sequence (P05121 24-402): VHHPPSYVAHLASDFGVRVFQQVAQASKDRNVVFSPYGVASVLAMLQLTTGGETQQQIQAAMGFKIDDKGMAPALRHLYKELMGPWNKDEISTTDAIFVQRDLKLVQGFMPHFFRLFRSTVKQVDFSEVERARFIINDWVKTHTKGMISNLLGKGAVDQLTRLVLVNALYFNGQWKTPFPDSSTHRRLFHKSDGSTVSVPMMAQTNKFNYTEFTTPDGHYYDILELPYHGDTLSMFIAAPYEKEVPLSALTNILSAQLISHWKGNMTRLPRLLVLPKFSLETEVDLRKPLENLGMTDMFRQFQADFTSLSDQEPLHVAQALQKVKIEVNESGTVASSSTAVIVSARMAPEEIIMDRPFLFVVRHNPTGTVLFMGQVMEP
human PAI-1, sequence (P05121 24-402): as above

SMILES	IC50 (human PAI-1) [µM]	melting point [°C]	inhibition at 25 µM [1] [%]
CCCCCc1c(-c2ccccc2)n(C)c2ccc(-c3ccc(OCc4nnn[nH]4)cc3)cc12 [1-Methyl-3-pentyl-2-phenyl-5-[4-(1H-tetrazol-5-ylmethoxy)-phenyl]-1H-indole]	36.4	–	–
Cc1c(Cc2ccccc2)c2cc(-c3ccc(OCc4nnn[nH]4)cc3)ccc2n1Cc1ccccc1 [1,3-Dibenzyl-2-methyl-5-[4-(1H-tetrazol-5-ylmethoxy)-phenyl]-1H-indole]	47.7	190 to 192	–
Cc1c(-c2ccccc2)n(Cc2ccccc2)c2cc(-c3ccc(OCc4nnn[nH]4)cc3)ccc12 [1-Benzyl-3-methyl-2-phenyl-6-[4-(1H-tetrazol-5-ylmethoxy)-phenyl]-1H-indole]	36.9	–	–
CCCCCc1c(-c2ccccc2)n(C)c2ccc(-c3ccc(OCC(=O)O)cc3)cc12 [[4-(1-Methyl-3-pentyl-2-phenyl-1H-indol-5-yl)-phenoxy]-acetic acid]	–	146 to 148	68
Cn1c(-c2ccccc2)c(Cc2ccccc2)c2cc(-c3ccc(OCC(=O)O)cc3)ccc21 [[4-(3-Benzyl-1-methyl-2-phenyl-1H-indol-5-yl)-phenoxy]-acetic acid]	–	179 to 181	48
Cc1c(-c2ccccc2)n(Cc2ccccc2)c2cc(-c3ccc(OCC(=O)O)cc3)ccc12 [[4-(1-Benzyl-3-methyl-2-phenyl-1H-indol-6-yl)-phenoxy]-acetic acid]	–	202 to 205	27
c1ccc(Cc2c(-c3ccccc3)n(Cc3ccccc3)c3ccc(-c4ccc(OCc5nnn[nH]5)cc4)cc23)cc1 [1,3-Dibenzyl-2-phenyl-5-[4-(1H-tetrazol-5-ylmethoxy)-phenyl]-1H-indole]	–	–	51
Cc1c(Cc2ccccc2)c2cc(-c3ccc(OCc4nnn[nH]4)cc3)ccc2n1C [3-Benzyl-1,2-dimethyl-5-[4-(1H-tetrazol-5-ylmethoxy)-phenyl]-1H-indole]	43.9	–	–
Cn1c(-c2ccccc2)c(Cc2ccccc2)c2cc(-c3ccc(OCc4nnn[nH]4)cc3)ccc21 [3-Benzyl-1-methyl-2-phenyl-5-[4-(1H-tetrazol-5-ylmethoxy)-phenyl]-1H-indole]	–	–	56
Cc1c(C)n(Cc2ccccc2)c2ccc(-c3ccc(OCC(=O)O)cc3)cc12 [[4-(1-Benzyl-2,3-dimethyl-1H-indol-5-yl)-phenoxy]-acetic acid]	51.5	203 to 206	–
Cc1c(Cc2ccccc2)c2cc(-c3ccc(OCC(=O)O)cc3)ccc2n1C [[4-(3-Benzyl-1,2-dimethyl-1H-indol-5-yl)-phenoxy]-acetic acid]	38	204 to 207	–
O=C(O)COc1ccc(-c2ccc3c(c2)c2c(n3Cc3ccccc3)CCCC2)cc1 [[4-(9-Benzyl-6,7,8,9-tetrahydro-5H-carbazol-3-yl)-phenoxy]-acetic acid]	35.6	176 to 180	–

The remaining lines, values ahead:

IC50 (human PAI-1) [µM]	melting point [°C]	inhibition at 25 µM [1] [%]	SMILES
25.3	180 to 183	–	Cc1c(Cc2ccccc2)c2cc(-c3ccc(OCC(=O)O)cc3)ccc2n1Cc1ccccc1 [[4-(1,3-Dibenzyl-2-methyl-1H-indol-5-yl)-phenoxy]-acetic acid]
15.4	141 to 143	–	CCCCCc1c(-c2ccccc2)n(Cc2ccccc2)c2ccc(-c3ccc(OCC(=O)O)cc3)cc12 [[4-(1-Benzyl-3-pentyl-2-phenyl-1H-indol-5-yl)-phenoxy]-acetic acid]
28.2	–	–	Cc1c(C)n(Cc2ccccc2)c2ccc(-c3ccc(OCc4nnn[nH]4)cc3)cc12 [1-Benzyl-2,3-dimethyl-5-[4-(1H-tetrazol-5-ylmethoxy)-phenyl]-1H-indole]
6.1	–	–	Cn1c2c(c3cc(-c4ccc(OCc5nnn[nH]5)cc4)ccc31)CCCC2 [9-Methyl-6-[4-(1H-tetrazol-5-ylmethoxy)-phenyl]-2,3,4,9-tetrahydro-1H-carbazole]
12.1	153 to 155	–	O=C(O)COc1ccc(-c2ccc3c(c2)c(Cc2ccccc2)c(-c2ccccc2)n3Cc2ccccc2)cc1 [[4-(1,3-Dibenzyl-2-phenyl-1H-indol-5-yl)-phenoxy]-acetic acid]
23.1	82 to 86	–	Cc1c(-c2ccccc2)n(Cc2ccccc2)c2cccc(-c3ccc(OCC(=O)O)cc3)c12 [[4-(1-Benzyl-3-methyl-2-phenyl-1H-indol-4-yl)-phenoxy]-acetic acid]
16.3	165 to 168	–	CCCCCc1c(-c2ccccc2)n(Cc2ccccc2)c2ccc(-c3ccc(OCc4nnn[nH]4)cc3)cc12 [1-Benzyl-3-pentyl-2-phenyl-5-[4-(1H-tetrazol-5-ylmethoxy)-phenyl]-1H-indole]
25.7	174 to 177	–	Cc1c(-c2ccccc2)n(Cc2ccccc2)c2cccc(-c3ccc(OCc4nnn[nH]4)cc3)c12 [1-Benzyl-3-methyl-2-phenyl-4-[4-(1H-tetrazol-5-ylmethoxy)-phenyl]-1H-indole]
33.9	177 to 180	–	Cc1c(-c2ccccc2)n(C)c2cccc(-c3ccc(OCC(=O)O)cc3)c12 [[4-(1,3-Dimethyl-2-phenyl-1H-indol-4-yl)-phenoxy]-acetic acid]
18.1	173.5 to 175	–	Cc1c(-c2ccccc2)n(Cc2ccccc2)c2ccc(-c3ccc(OCC(=O)O)cc3)cc12 [[4-(1-Benzyl-3-methyl-2-phenyl-1H-indol-5-yl)-phenoxy]-acetic acid]
27.5	–	–	c1ccc(Cn2c3c(c4cc(-c5ccc(OCc6nnn[nH]6)cc5)ccc42)CCCC3)cc1 [9-Benzyl-6-[4-(1H-tetrazol-5-ylmethoxy)-phenyl]-2,3,4,9-tetrahydro-1H-carbazole]
32.8	–	–	Cc1c(-c2ccccc2)n(C)c2cccc(-c3ccc(OCc4nnn[nH]4)cc3)c12 [1,3-Dimethyl-2-phenyl-4-[4-(1H-tetrazol-5-ylmethoxy)-phenyl]-1H-indole]
10.1	–	–	Cc1c(-c2ccccc2)n(Cc2ccccc2)c2ccc(-c3ccc(OCc4nnn[nH]4)cc3)cc12 [1-Benzyl-3-methyl-2-phenyl-5-[4-(1H-tetrazol-5-ylmethoxy)-phenyl]-1H-indole]
16.5	–	–	Cc1c(-c2ccccc2)n(C)c2ccc(-c3ccc(OCc4nnn[nH]4)cc3)cc12 [1,3-Dimethyl-2-phenyl-5-[4-(1H-tetrazol-5-ylmethoxy)-phenyl]-1H-indole]
